# Patent US12049450B2, “Pyridyloxy-carboxylate derivative and preparation method therefor, herbicidal composition, and use” (Qingdao Kingagroot Chemical Compound Co., Ltd., priority 2018, dated 2024)
# Assays:
# Assay type in all cases: in vivo
# [1] = system: Galium spurium; assay: Post-emergence test experiment (greenhouse pot, spray at 2-3 leaf stage); details: 1000 g/ha; post-emergence spray at 2-3 leaf stage; assessed after 3 weeks; fresh weight inhibition rate
# How it was run: (§1)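 Activity graded levels 0-5 by fresh-weight inhibition (level 5 above 85%, level 0 below 5%), assessed 3 weeks after treatment. Plants grown in greenhouse pots were sprayed post-emergence at 2-3 leaves using acetone/tween-80 solutions with methyl oleate synergist (1.5 L/ha).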
# [2] = system: Echinochloa crusgalli; assay: as above; details: 1000 g/ha; post-emergence spray at 2-3 leaf stage; assessed after 3 weeks; fresh weight inhibition rate
# How it was run: as §1
# [3] = system: Digitaria sanguinalis; assay: as above; details: 1000 g/ha; post-emergence spray at 2-3 leaf stage; assessed after 3 weeks; fresh weight inhibition rate
# How it was run: as §1
# [4] = system: Monochoria vaginalis; assay: as above; details: 1000 g/ha; post-emergence spray at 2-3 leaf stage; assessed after 3 weeks; fresh weight inhibition rate
# How it was run: as §1
# [5] = system: Abutilon theophrasti; assay: as above; details: 1000 g/ha; post-emergence spray at 2-3 leaf stage; assessed after 3 weeks; fresh weight inhibition rate
# How it was run: as §1
# [6] = system: Soybean; assay: Spray drift test, application by unmanned gyroplane, soybean field at 10 meters; details: 600 g/ha, gyroplane at 1 m, gentle breeze
# Procedure: Broadleaf crops are very sensitive to hormonal herbicides, therefore crop injuries are more likely to occur in case of spray drifting. Tests were conducted in gentle breeze for the compounds of the present invention. The formulation of the compounds of the present invention was applied by DJI unmanned gyroplane with application height of 1 m and water volume of 20 kg/ha. The use rate was 600 g/ha. The active ingredient was dissolved by acetone and diluted to aqueous solution of Tween 80. There's a soybean field at 10 meters from the application area and the height of soybean plants were about 15 cm at the application time.
SMILES,Activity level (growth inhibition rate) Galium spurium [1],Activity level (growth inhibition rate) Echinochloa crusgalli [2],Activity level (growth inhibition rate) Digitaria sanguinalis [3],Activity level (growth inhibition rate) Monochoria Vaginalis [4],Activity level (growth inhibition rate) Abutilon theophrasti [5],"Soybean, injury level by spray drift [6]"
CC(Oc1nc(F)c(Cl)c(N)c1Cl)C(=O)SCc1ccc(-c2ccccc2)cc1 (racemic) [Compound 113],5 (Level 5: the growth inhibition rate is greater than 85%),5 (Level 5: the growth inhibition rate is greater than 85%),5 (Level 5: the growth inhibition rate is greater than 85%),5 (Level 5: the growth inhibition rate is greater than 85%),5 (Level 5: the growth inhibition rate is greater than 85%),0 (Level 0: the growth inhibition rate is less than 5%)
CC(Oc1nc(F)c(F)c(N)c1F)C(=O)OCc1ccccc1 (stereo not shown) [Compound 1],5 (Level 5: the growth inhibition rate is greater than 85%),5 (Level 5: the growth inhibition rate is greater than 85%),5 (Level 5: the growth inhibition rate is greater than 85%),5 (Level 5: the growth inhibition rate is greater than 85%),5 (Level 5: the growth inhibition rate is greater than 85%),0 (Level 0: the growth inhibition rate is less than 5%)
CC(Oc1nc(Cl)c(Cl)c(N)c1Cl)C(=O)OCc1ccccc1 (stereo not shown) [Compound 2],5 (Level 5: the growth inhibition rate is greater than 85%),5 (Level 5: the growth inhibition rate is greater than 85%),5 (Level 5: the growth inhibition rate is greater than 85%),5 (Level 5: the growth inhibition rate is greater than 85%),5 (Level 5: the growth inhibition rate is greater than 85%),0 (Level 0: the growth inhibition rate is less than 5%)
CC(Oc1ncc(Cl)c(N)c1Cl)C(=O)OCc1ccccc1 (stereo not shown) [Compound 3],5 (Level 5: the growth inhibition rate is greater than 85%),5 (Level 5: the growth inhibition rate is greater than 85%),5 (Level 5: the growth inhibition rate is greater than 85%),5 (Level 5: the growth inhibition rate is greater than 85%),5 (Level 5: the growth inhibition rate is greater than 85%),0 (Level 0: the growth inhibition rate is less than 5%)
CC(C)C(Oc1nc(F)c(Cl)c(N)c1Cl)C(=O)OCc1ccccc1 (stereo not shown) [Compound 27],5 (Level 5: the growth inhibition rate is greater than 85%),–,–,5 (Level 5: the growth inhibition rate is greater than 85%),5 (Level 5: the growth inhibition rate is greater than 85%),0 (Level 0: the growth inhibition rate is less than 5%)
Nc1c(Cl)c(F)nc(OC(C(=O)OCc2ccccc2)C(F)(F)F)c1Cl (stereo not shown) [Compound 41],5 (Level 5: the growth inhibition rate is greater than 85%),–,–,5 (Level 5: the growth inhibition rate is greater than 85%),5 (Level 5: the growth inhibition rate is greater than 85%),0 (Level 0: the growth inhibition rate is less than 5%)
N#CC(Oc1nc(F)c(Cl)c(N)c1Cl)C(=O)OCc1ccccc1 (stereo not shown) [Compound 43],5 (Level 5: the growth inhibition rate is greater than 85%),–,–,5 (Level 5: the growth inhibition rate is greater than 85%),5 (Level 5: the growth inhibition rate is greater than 85%),0 (Level 0: the growth inhibition rate is less than 5%)
CN(C)CC(Oc1nc(F)c(Cl)c(N)c1Cl)C(=O)SCc1ccccc1 (stereo not shown) [Compound 46],5 (Level 5: the growth inhibition rate is greater than 85%),–,–,5 (Level 5: the growth inhibition rate is greater than 85%),5 (Level 5: the growth inhibition rate is greater than 85%),0 (Level 0: the growth inhibition rate is less than 5%)
COC(Oc1nc(F)c(Cl)c(N)c1Cl)C(=O)SCc1ccccc1 (stereo not shown) [Compound 50],5 (Level 5: the growth inhibition rate is greater than 85%),–,–,5 (Level 5: the growth inhibition rate is greater than 85%),5 (Level 5: the growth inhibition rate is greater than 85%),0 (Level 0: the growth inhibition rate is less than 5%)
Nc1c(Cl)c(F)nc(OC(Cc2ccccc2)C(=O)OCc2ccccc2)c1Cl (stereo not shown) [Compound 53],5 (Level 5: the growth inhibition rate is greater than 85%),–,–,5 (Level 5: the growth inhibition rate is greater than 85%),5 (Level 5: the growth inhibition rate is greater than 85%),0 (Level 0: the growth inhibition rate is less than 5%)
Nc1c(Cl)c(F)nc(OC(C(=O)OCc2ccccc2)c2cccs2)c1Cl (stereo not shown) [Compound 54],5 (Level 5: the growth inhibition rate is greater than 85%),–,–,5 (Level 5: the growth inhibition rate is greater than 85%),5 (Level 5: the growth inhibition rate is greater than 85%),0 (Level 0: the growth inhibition rate is less than 5%)
CC(Oc1nc(F)c(Cl)c(N)c1Cl)C(=O)OCc1cc(C(F)(F)F)ccc1F (stereo not shown) [Compound 82],5 (Level 5: the growth inhibition rate is greater than 85%),5 (Level 5: the growth inhibition rate is greater than 85%),5 (Level 5: the growth inhibition rate is greater than 85%),5 (Level 5: the growth inhibition rate is greater than 85%),5 (Level 5: the growth inhibition rate is greater than 85%),0 (Level 0: the growth inhibition rate is less than 5%)
